Data set [1] in a line: Selectivity index, ratio of CC50 for MDCK cells to IC50 for Influenza A virus (A/California/07/09(H1N1)) pdm09. The class given is functional.
A short description of data set [2]: Cytotoxicity against MDCK cells assessed as increase in cell death after 48 hrs by MTT assay. The class given is toxicity, cell-based, Canis lupus familiaris. The note with it: dog.
Data set [3] in a line: Antiviral activity against Influenza A virus (A/California/07/09(H1N1))pdm09 infected in MDCK cells assessed as decrease in virus production preincubated for 1 hr with cells followed by viral infection measured after 24 hrs by hemagglutination assay. The class given is functional, cell-based, Influenza A virus (A/California/07/2009(H1N1)).
The subject of data set [4] is Lassa virus. The experiment in a line: Antiviral activity against Lassa virus. The class given is functional. The note with it: Mammarenavirus lassaense.
For data set [5], the system named is Junin virus. Nature of the data set: Antiviral activity against Junin virus. The class given is functional. The conditions noted are these: Mammarenavirus juninense.
Data set [6] deals with Guanarito virus. The experiment in a line: Antiviral activity against Guanarito virus. The class given is functional. The note with it: Mammarenavirus guanaritoense.
For data set [7], the system named is Sabia virus. The experiment in a line: Antiviral activity against Sabia virus. The class given is functional.
Data set [8] has as its system Machupo mammarenavirus. Nature of the data set: Antiviral activity against Machupo virus. The conditions noted are these: Mammarenavirus machupoense. The class given is functional.

A word on the CC50: it is the concentration giving 50% cytotoxicity. The IC50 is the concentration needed to halve the response being measured.

Each structure is given as a SMILES string.

Take `Cl.N=c1n(CCOc2ccc(F)cc2)c2ccccc2n1CC(N)=O`: in data set [1], the “Ratio CC50/IC50” value was 23. Moreover, the CC50 at 48 h in data set [2] came out at 1260 µM. Besides, in data set [3], the IC50 came out at 54.8 µM.

In the case of `CC(C)(C)c1ccc(C(=O)/N=c2\[nH]c3ccccc3n2CCOc2ccc(Br)cc2)cc1`, in data set [1], the “Ratio CC50/IC50” value was 54. In data set [2], the CC50 at 48 h came to 2030 µM. In addition, in data set [3], the IC50 was 37.4 µM.

With `Br.C=CCn1c(=N)n(CCCOc2ccc(F)cc2)c2ccccc21`, the “Ratio CC50/IC50” value in data set [1] is 8. Besides, the CC50 at 48 h in data set [2] is 80.1 µM. The IC50 in data set [3] was determined as 9.9 µM.

In the case of `O=C(Nc1nc2ccccc2n1CCOc1ccccc1)c1ccco1`, the “Ratio CC50/IC50” value in data set [1] amounted to 50. Moreover, the CC50 at 48 h in data set [2] was determined as 2160 µM. Further, in data set [3], the IC50 turned out to be 42.9 µM.

For the compound `S=C(Nc1ccccc1)Nc1nc2ccccc2n1CCOc1ccccc1`, in data set [1], the “Ratio CC50/IC50” value turned out to be 1. Further, the CC50 at 48 h in data set [2] is 25.8 µM. In data set [3], the IC50 turned out to be 25.8 µM.

Regarding `COc1ccc(OCCn2/c(=N/C(=O)c3cccs3)[nH]c3ccccc32)cc1`, the “Ratio CC50/IC50” value in data set [1] was above 6. Further, the CC50 at 48 h in data set [2] was above 2540 µM. Further, the IC50 in data set [3] came out at 450 µM.

With `O=C(/N=c1\[nH]c2ccccc2n1CCOc1ccc(F)cc1)c1ccc([N+](=O)[O-])cc1`, the “Ratio CC50/IC50” value in data set [1] was above 5. Also, the CC50 at 48 h in data set [2] was above 2550 µM. Further, in data set [3], the IC50 was found to be 543 µM.

Consider `Cl.N=c1n(CO)c2ccccc2n1CCOc1ccc(Cl)cc1`, for which, in data set [1], the “Ratio CC50/IC50” value is recorded as 9. The CC50 at 48 h in data set [2] stood at 40.8 µM. Further, the IC50 in data set [3] is 4.6 µM.

Regarding `O=C(/N=c1\[nH]c2ccccc2n1CCOc1ccc(F)cc1)c1ccc(Cl)cc1`, the “Ratio CC50/IC50” value in data set [1] was above 7. Moreover, in data set [2], the CC50 at 48 h is above 732 µM. For the same compound, the IC50 in data set [3] turned out to be 112 µM.

As to `Cl.N=c1n(CCO)c2ccccc2n1Cc1ccc(Cl)c(Cl)c1`, in data set [1], the “Ratio CC50/IC50” value is recorded as 83. Also, in data set [2], the CC50 at 48 h came to 202 µM. For the same compound, in data set [3], the IC50 came out at 2.4 µM.

Consider `CC(C)(C)c1ccc(OCCn2c(=N)n(CC(N)=O)c3ccccc32)cc1.Cl`, for which the “Ratio CC50/IC50” value in data set [1] came out at 5. In addition, in data set [2], the CC50 at 48 h came out at 151 µM. Moreover, the IC50 in data set [3] stood at 27.5 µM.

Consider `O=C(Nc1nc2ccccc2n1CCOc1ccc(Cl)cc1)c1ccco1`, for which, in data set [1], the “Ratio CC50/IC50” value turned out to be 6. Also, in data set [2], the CC50 at 48 h came to 346 µM. Moreover, in data set [3], the IC50 came to 57.6 µM.

As for `O=C(/N=c1\[nH]c2ccccc2n1CCOc1ccc(Cl)cc1)c1cccs1`, the “Ratio CC50/IC50” value in data set [1] was 8. Also, in data set [2], the CC50 at 48 h came out at 2240 µM. The IC50 in data set [3] came out at 297 µM.

Turning to `O=C(/N=c1\[nH]c2ccccc2n1CCOc1ccc(Br)cc1)c1cccs1`, the “Ratio CC50/IC50” value in data set [1] is reported as above 7. In addition, the CC50 at 48 h in data set [2] was above 2260 µM. The IC50 in data set [3] is 317 µM.

In the case of `Cc1ccccc1OCCn1/c(=N/C(=O)c2cccs2)[nH]c2ccccc21`, in data set [1], the “Ratio CC50/IC50” value amounted to 5. The CC50 at 48 h in data set [2] was found to be 159 µM. Also, the IC50 in data set [3] is 33.2 µM.

For `Br.C=CCn1c(=N)n(CCOc2ccc(C(C)(C)C)cc2)c2ccccc21`, the “Ratio CC50/IC50” value in data set [1] is listed as 8. The CC50 at 48 h in data set [2] came out at 12.8 µM. For the same compound, in data set [3], the IC50 is 1.6 µM.

With `Br.Cc1ccc(OCCn2c(=N)n(Cc3ccc(Cl)c(Cl)c3)c3ccccc32)cc1`, in data set [1], the “Ratio CC50/IC50” value amounted to 11. In addition, the CC50 at 48 h in data set [2] came to 13.2 µM. Moreover, in data set [3], the IC50 worked out at 0.6 µM.

For `Cl.N=c1n(CC(N)=O)c2ccccc2n1Cc1ccc(Cl)c(Cl)c1`, the “Ratio CC50/IC50” value in data set [1] is 28. Moreover, in data set [2], the CC50 at 48 h came out at 196 µM. Moreover, the IC50 in data set [3] came out at 7 µM.

With `S=C(Nc1ccccc1)Nc1nc2ccccc2n1CCOc1ccc(Br)cc1`, the “Ratio CC50/IC50” value in data set [1] was below 1. For the same compound, the CC50 at 48 h in data set [2] amounted to 20.3 µM. For the same compound, in data set [3], the IC50 is above 21.4 µM.

With `O=C(/N=c1\[nH]c2ccccc2n1CCOc1cccc(Cl)c1)c1ccco1`, the “Ratio CC50/IC50” value in data set [1] came to 63. Moreover, the CC50 at 48 h in data set [2] was 820 µM. Moreover, in data set [3], the IC50 came out at 13.1 µM.

Regarding `Cc1ccc(OCCn2c(=N)n(CC(N)=O)c3ccccc32)cc1.Cl`, the “Ratio CC50/IC50” value in data set [1] worked out at 9. The CC50 at 48 h in data set [2] stood at 309 µM. In addition, in data set [3], the IC50 worked out at 35.8 µM.

In the case of `COc1ccc(-n2cnc3cc(NCc4ccc(C)cc4)ccc32)cc1`, the IC50 in data set [4] is 0.0016 µM; in data set [5], 0.0002 to 0.012 µM; in data set [6], 0.0002 to 0.012 µM; in data set [7], 0.0002 to 0.012 µM; in data set [8] it was 0.0002 to 0.012 µM.

Regarding `Cl.N=c1n(Cc2ccc(F)cc2)c2ccccc2n1Cc1ccc(Cl)c(Cl)c1`, in data set [1], the “Ratio CC50/IC50” value worked out at 5. Besides, in data set [2], the CC50 at 48 h worked out at 21.8 µM. For the same compound, in data set [3], the IC50 worked out at 4.5 µM.
